Converted amounts (≈) assume the structure as drawn.
Assays:
Aspergillus udagawae [1] = assay: MIC broth microdilution (CLSI); format: cell-based; conditions: Aspergillus udagawae 8G81
Description: (§1) Antifungal susceptibility was determined by broth microdilution according to the CLSI guidelines described in M27-Ed4 ([16]).

Fusarium solani [2] = assay: checkerboard drug interaction (FICI, MICc); format: cell-based;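 note: simplified diagonal checkerboard screen pairing antifungals with FPPS inhibitors, FICI derived under the Loewe additivity model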
Description: (§2) Drug interactions between antifungals and FPPS inhibitors were investigated using a simplified checkerboard diagonal screening method ([45]). […] FICIs were determined according to the Loewe additivity model ([17]).

Candida tropicalis = assay: MIC broth microdilution (CLSI); format: cell-based; conditions: Candida tropicalis M230640
Description: as §1

Mucor circinelloides [3] = assay: MIC broth microdilution (CLSI); format: cell-based; conditions: Mucor circinelloides 80-14-240-5007
Description: as §1

Epidermophyton floccosum [4] = assay: MIC broth microdilution (CLSI); format: cell-based; conditions: Epidermophyon floccosum R-113
Description: as §1

Nannizzia gypsea = assay: checkerboard drug interaction (FICI, MICc);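 note: simplified diagonal checkerboard screen pairing antifungals with FPPS inhibitors, FICI derived using the Loewe additivity model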
Description: as §2

Lomentospora prolificans = assay: MIC broth microdilution (CLSI); format: cell-based; conditions: Lomentospora prolificans 80-16-101-2445
Description: as §1

Aspergillus niger = assay: checkerboard drug interaction (FICI, MICc); format: cell-based;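 note: simplified diagonal checkerboard screen pairing antifungals with FPPS inhibitors, FICI calculated under the Loewe additivity model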
Description: as §2

Cryptococcus gattii = assay: MIC broth microdilution (CLSI); format: cell-based; conditions: Cryptococcus gattii PNG27
Description: as §1

[5] = test system: Cryptococcus bacillisporus; assay: checkerboard drug interaction (FICI, MICc); format: cell-based;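 note: interaction of antifungals with FPPS inhibitors assessed by a simplified diagonal checkerboard screen, with FICI computed under the Loewe additivity model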
Description: as §2

Pichia kudriavzevii = assay: checkerboard drug interaction (FICI, MICc); format: cell-based;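 note: antifungal plus FPPS inhibitor interactions tested in a simplified diagonal checkerboard screen, with FICI calculated under the Loewe additivity model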
Description: as §2

Microsporum canis = assay: checkerboard drug interaction (FICI, MICc); format: cell-based;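 note: simplified diagonal checkerboard screen pairing antifungals with FPPS inhibitors, FICI calculated under the Loewe additivity model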
Description: as §2

Fusarium solani [6] = assay: MIC broth microdilution (CLSI); conditions: Fusarium solani 04-16-056-1862
Description: as §1

Mucor circinelloides [7] = assay: checkerboard drug interaction (FICI, MICc); format: cell-based;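 note: simplified diagonal checkerboard screen pairing antifungals with FPPS inhibitors, FICI calculated under the Loewe additivity model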
Description: as §2

Aspergillus udagawae [8] = assay: checkerboard drug interaction (FICI, MICc); format: cell-based;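 note: simplified diagonal checkerboard screen pairing antifungals with FPPS inhibitors, FICI calculated using the Loewe additivity model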
Description: as §2

Paraphyton cookei [9] = assay: checkerboard drug interaction (FICI, MICc);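 note: simplified diagonal checkerboard screen pairing an antifungal with an FPPS inhibitor, FICI computed under the Loewe additivity model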
Description: as §2

Fusarium oxysporum = assay: MIC broth microdilution (CLSI); format: cell-based; conditions: Fusarium oxysporum 07-200-3012
Description: as §1

[10] = test system: Trichophyton interdigitale; assay: checkerboard drug interaction (FICI, MICc);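 note: simplified diagonal checkerboard screen pairing antifungals with FPPS inhibitors, FICI values calculated under the Loewe additivity model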
Description: as §2

Scedosporium apiospermum [11] = assay: MIC broth microdilution (CLSI); format: cell-based; conditions: Scedosporium apiospermum 04-16-022-2268
Description: as §1

Trichophyton tonsurans [12] = assay: MIC broth microdilution (CLSI); conditions: Trichophyton tonsurans R-168
Description: as §1

Candida dubliniensis = assay: MIC broth microdilution (CLSI); format: cell-based; conditions: Candida dubliniensis M230642
Description: as §1

Aspergillus felis = assay: MIC broth microdilution (CLSI); format: cell-based; conditions: Aspergillus felis IHE87256683D6
Description: as §1

Rhizopus oryzae = assay: MIC broth microdilution (CLSI); format: cell-based; conditions: Rhizopus oryzae 04-14-364-1703
Description: as §1

Trichophyton tonsurans [13] = assay: checkerboard drug interaction (FICI, MICc); format: cell-based;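 note: simplified diagonal checkerboard screen combining antifungals with FPPS inhibitors, with FICI calculated under the Loewe additivity model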
Description: as §2

Nannizzia nana [14] = assay: MIC broth microdilution (CLSI); format: cell-based; conditions: Nannizzia nana R-133
Description: as §1

Paraphyton cookei [15] = assay: MIC broth microdilution (CLSI); format: cell-based; conditions: Paraphyton cookei R-639
Description: as §1

Aspergillus terreus = assay: checkerboard drug interaction (FICI, MICc); format: cell-based;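 note: simplified diagonal checkerboard screen pairing antifungals with FPPS inhibitors, FICI derived by the Loewe additivity model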
Description: as §2

Nannizzia nana [16] = assay: checkerboard drug interaction (FICI, MICc); format: cell-based;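 note: simplified diagonal checkerboard screen pairing antifungals with FPPS inhibitors, FICI calculated under the Loewe additivity model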
Description: as §2

[17] = test system: Aspergillus frankstonensis; assay: MIC broth microdilution (CLSI); format: cell-based; conditions: Aspergillus frankstonensis DTO 341-F3
Description: as §1

Trichophyton soudanense = assay: MIC broth microdilution (CLSI); conditions: Trichophyton soudanense R-167
Description: as §1

Scedosporium apiospermum [18] = assay: checkerboard drug interaction (FICI, MICc); format: cell-based;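 note: simplified diagonal checkerboard screen of antifungal plus FPPS inhibitor pairs, with FICI computed under the Loewe additivity model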
Description: as §2

Epidermophyton floccosum [19] = assay: checkerboard drug interaction (FICI, MICc)
Description: as §2

Cryptococcus tetragattii = assay: checkerboard drug interaction (FICI, MICc); format: cell-based;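 note: simplified diagonal checkerboard screen pairing antifungals with FPPS inhibitors, with FICI calculated under the Loewe additivity model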
Description: as §2

Candida parapsilosis = assay: checkerboard drug interaction (FICI, MICc); format: cell-based;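 note: simplified diagonal checkerboard screen pairing antifungals with FPPS inhibitors, with FICI computed under the Loewe additivity model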
Description: as §2

[20] = test system: Aspergillus frankstonensis; assay: checkerboard drug interaction (FICI, MICc);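 note: simplified diagonal checkerboard screen pairing antifungals with FPPS inhibitors, FICI calculated using the Loewe additivity model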
Description: as §2

For `Nc1nc(=O)[nH]cc1F` [5FC, 5-flucytosine], the “MIC / MEC” value (Aspergillus udagawae [1]) was over 64 µg/mL, the “antifungal MICc” value (Fusarium solani [2]; in combination with 10-ZOL) was 512 and the “antifungal MICc” value (Fusarium solani [2]; in combination with ZOL) was 256. The “MIC / MEC” value (Candida tropicalis) was 0.5 µg/mL (≈ 3.87 µM), the “MIC / MEC” value (Mucor circinelloides [3]) was over 64 µg/mL and the “MIC / MEC” value (Epidermophyton floccosum [4]) was 64 µg/mL (≈ 496 µM). The “antifungal MICc” value (Nannizzia gypsea; in combination with 10-ZOL) was 512, the “antifungal MICc” value (Nannizzia gypsea; in combination with ZOL) was 256 and the “MIC / MEC” value (Lomentospora prolificans) was over 64 µg/mL. For the same molecule, the “antifungal MICc” value (Aspergillus niger; in combination with 10-ZOL) was 512, the “antifungal MICc” value (Aspergillus niger; in combination with ZOL) was 256 and the “MIC / MEC” value (Cryptococcus gattii) was 0.5 µg/mL (≈ 3.87 µM). For the same molecule, the “antifungal MICc” value ([5]; in combination with 10-ZOL) was 1, the “antifungal MICc” value ([5]; in combination with ZOL) was 0.125 and the “antifungal MICc” value (Pichia kudriavzevii; in combination with 10-ZOL) was 16. The “antifungal MICc” value (Pichia kudriavzevii; in combination with ZOL) was 2, the “antifungal MICc” value (Microsporum canis; in combination with 10-ZOL) was 256 and the “antifungal MICc” value (Microsporum canis; in combination with ZOL) was 512. The “MIC / MEC” value (Fusarium solani [6]) was over 64 µg/mL, the “antifungal MICc” value (Mucor circinelloides [7]; in combination with 10-ZOL) was 512 and the “antifungal MICc” value (Mucor circinelloides [7]; in combination with ZOL) was 512. The “antifungal MICc” value (Aspergillus udagawae [8]; in combination with 10-ZOL) was 64, the “antifungal MICc” value (Aspergillus udagawae [8]; in combination with ZOL) was 256 and the “antifungal MICc” value (Paraphyton cookei [9]; in combination with 10-ZOL) was 512. The “antifungal MICc” value (Paraphyton cookei [9]; in combination with ZOL) was 512, the “MIC / MEC” value (Fusarium oxysporum) was over 64 µg/mL and the “antifungal MICc” value ([10]; in combination with 10-ZOL) was 64. For the same molecule, the “antifungal MICc” value ([10]; in combination with ZOL) was 128, the “MIC / MEC” value (Scedosporium apiospermum [11]) was over 64 µg/mL and the “MIC / MEC” value (Trichophyton tonsurans [12]) was 64 µg/mL (≈ 496 µM). For the same molecule, the “MIC / MEC” value (Candida dubliniensis) was 0.25 µg/mL (≈ 1.94 µM), the “MIC / MEC” value (Aspergillus felis) was over 64 µg/mL and the “MIC / MEC” value (Rhizopus oryzae) was over 64 µg/mL. For the same molecule, the “antifungal MICc” value (Trichophyton tonsurans [13]; in combination with 10-ZOL) was 64, the “antifungal MICc” value (Trichophyton tonsurans [13]; in combination with ZOL) was 64 and the “MIC / MEC” value (Nannizzia nana [14]) was 32 µg/mL (≈ 248 µM). The “MIC / MEC” value (Paraphyton cookei [15]) was over 64 µg/mL, the “antifungal MICc” value (Aspergillus terreus; in combination with 10-ZOL) was 64 and the “antifungal MICc” value (Aspergillus terreus; in combination with ZOL) was 32. The “antifungal MICc” value (Nannizzia nana [16]; in combination with 10-ZOL) was 32, the “antifungal MICc” value (Nannizzia nana [16]; in combination with ZOL) was 64 and the “MIC / MEC” value [17] was over 64 µg/mL. The “MIC / MEC” value (Trichophyton soudanense) was 64 µg/mL (≈ 496 µM), the “antifungal MICc” value (Scedosporium apiospermum [18]; in combination with 10-ZOL) was 256 and the “antifungal MICc” value (Scedosporium apiospermum [18]; in combination with ZOL) was 256. The “antifungal MICc” value (Epidermophyton floccosum [19]; in combination with 10-ZOL) was 32, the “antifungal MICc” value (Epidermophyton floccosum [19]; in combination with ZOL) was 32 and the “antifungal MICc” value (Cryptococcus tetragattii; in combination with 10-ZOL) was 0.5. For the same molecule, the “antifungal MICc” value (Cryptococcus tetragattii; in combination with ZOL) was 0.5, the “antifungal MICc” value (Candida parapsilosis; in combination with 10-ZOL) was 0.125 and the “antifungal MICc” value (Candida parapsilosis; in combination with ZOL) was 0.25. The “antifungal MICc” value ([20]; in combination with 10-ZOL) was 256 and the “antifungal MICc” value ([20]; in combination with ZOL) was 256.
For `OC(Cn1cncn1)(Cn1cncn1)c1ccc(F)cc1F` [FLC, fluconazole], the “antifungal MICc” value (Fusarium solani [2]; in combination with 10-ZOL) was 64, the “antifungal MICc” value (Fusarium solani [2]; in combination with ZOL) was 32 and the “MIC / MEC” value (Candida tropicalis) was 16 µg/mL (≈ 52.2 µM). The “antifungal MICc” value (Nannizzia gypsea; in combination with 10-ZOL) was 64, the “antifungal MICc” value (Aspergillus niger; in combination with 10-ZOL) was 64 and the “MIC / MEC” value (Cryptococcus gattii) was 2 µg/mL (≈ 6.53 µM). The “antifungal MICc” value ([5]; in combination with 10-ZOL) was 1, the “antifungal MICc” value ([5]; in combination with ZOL) was 0.125 and the “antifungal MICc” value (Pichia kudriavzevii; in combination with 10-ZOL) was 16. The “antifungal MICc” value (Pichia kudriavzevii; in combination with ZOL) was 8, the “antifungal MICc” value (Microsporum canis; in combination with 10-ZOL) was 64 and the “antifungal MICc” value (Microsporum canis; in combination with ZOL) was 32. For the same molecule, the “antifungal MICc” value (Mucor circinelloides [7]; in combination with 10-ZOL) was 32, the “antifungal MICc” value (Mucor circinelloides [7]; in combination with ZOL) was 32 and the “antifungal MICc” value (Aspergillus udagawae [8]; in combination with 10-ZOL) was 4. The “antifungal MICc” value (Paraphyton cookei [9]; in combination with 10-ZOL) was 8, the “antifungal MICc” value ([10]; in combination with 10-ZOL) was 32 and the “MIC / MEC” value (Candida dubliniensis) was 0.125 µg/mL (≈ 0.408 µM). For the same molecule, the “antifungal MICc” value (Trichophyton tonsurans [13]; in combination with 10-ZOL) was 2, the “antifungal MICc” value (Trichophyton tonsurans [13]; in combination with ZOL) was 32 and the “MIC / MEC” value (Nannizzia nana [14]) was 32 µg/mL (≈ 104 µM). The “antifungal MICc” value (Aspergillus terreus; in combination with 10-ZOL) was 2, the “antifungal MICc” value (Aspergillus terreus; in combination with ZOL) was 8 and the “antifungal MICc” value (Nannizzia nana [16]; in combination with 10-ZOL) was 32. For the same molecule, the “antifungal MICc” value (Nannizzia nana [16]; in combination with ZOL) was 8, the “antifungal MICc” value (Epidermophyton floccosum [19]; in combination with 10-ZOL) was 32 and the “antifungal MICc” value (Cryptococcus tetragattii; in combination with 10-ZOL) was 2. For the same molecule, the “antifungal MICc” value (Cryptococcus tetragattii; in combination with ZOL) was 1, the “antifungal MICc” value (Candida parapsilosis; in combination with 10-ZOL) was 1 and the “antifungal MICc” value (Candida parapsilosis; in combination with ZOL) was 0.25. For the same molecule, the “antifungal MICc” value ([20]; in combination with 10-ZOL) was 64.
